The text below walks through data of patent US20160058006A1, “COMPOSITIONS AND METHODS FOR ATTRACTING STINK BUGS” (BEDOUKIAN RESEARCH, INC., priority 2014, published 2016).

Experiment [1] has as its system brown marmorated stink bug. To be noted: cited from earlier work.
The subject of experiment [2] is individual sensillum (olfactory receptor neurons) on the brown marmorated stink bug antenna. The experiment is described as follows: electrophysiological recording from an individual antennal sensillum in response to an olfactory stimulus. Also on record: species or system Halyomorpha halys. To be noted: 2 second stimulus, 100 μg dosage load in ethanol, versus 2 second control stimulus; FIG. 3. An excerpt:
Many aspects of insect behavior are mediated by olfactory signals. These olfactory signals are detected by sensory structures called sensilla which are innervated by olfactory receptor neurons and are located on various parts of the insect body including the antenna, mouthparts and tarsi. It is possible to determine the capabilities of the peripheral sensory system by using electrophysiology methods. Basically, extracellular neural responses from the individual receptor neurons located in the sensilla on the antenna of the stinkbug can be electrically recorded in response to stimulation with various concentrations of olfactory odorants.
Details of the recording methodology for insects have been described previously. […] The action potentials within this sensillum can then be monitored and recorded. […] Electrical signals obtained from the neurons within the sensillum are band-passed filtered (300-3K Hz), amplified (1000×) and analyzed using commercial software, Autospike (Syntech, Hilversum, The Netherlands). […]
FIG. 3 represents screen shots of the analysis of the above trace (FIG. 2) from the software that used to analyze the electrophysiological data. […] In the histograms, each bar represents the number of impulses calculated for a metric of impulse size.

On to `CCC\C=C/C=C/C=C/C(=O)OC` [methyl (2E,4E,6Z)-decatrienoate], for which, in experiment [1] (early season trials), the attraction by itself result is recorded as “not attractive by itself”. Also, in experiment [1] (in vivo), the “cross-attraction of the brown marmorated stink bug” value is reported as “cross-attractive”. Also, the attraction of adults result in experiment [1] (late in the season) is “reliably attracted”.

Consider ethyl (2E,4E,6Z)-decatrienoate, for which the “number of impulses (activity) in stimulus histogram compared to control histogram” value in experiment [2] was “more activity in the bottom stimulus histogram as compared to the top control histogram”.
